Source: patent publication US5422341A, “Motilin-like polypeptides with gastrointestinal motor stimulating activity” (Ohmeda Pharmaceutical Products Division Inc., priority 1993, dated 1995)
Like-named read-outs stand apart in the source and are kept apart here. Square brackets hold non-standard residues; d marks the D form. Peptide text beside a SMILES is read from it. * marks the point of attachment. X1 = C[N+](C)(C)[C@@H](Cc1ccccc1)C(=O)*; NMe2Phe = CN(C)[C@@H](Cc1ccccc1)C(=O)*; NMeF = CN[C@@H](Cc1ccccc1)C(=O)O; Cha = N[C@@H](CC1CCCCC1)C(=O)O; dCha = N[C@H](CC1CCCCC1)C(=O)O

How the values were obtained:
[1] = target: T1, motilin receptor (Oryctolagus cuniculus, UniProt G1T803); test: Determination of motilin receptor binding affinity (displacement of [125I-Tyr7, Nle13]motilin(porcine)); design: species or system rabbit
T1 construct: from tissue; host or cells: rabbit antral smooth muscle membranes
Experimental: The motilin receptor binding affinity of the peptides of this invention was determined by using the general procedure of Bormans, Peelers and Vantrappen, Regul. […] Fitting was performed using the iterative least-squares procedure of the SAS-software package (SAS Institute, Inc., Cary, N.C., USA).

[2] = target: segments of rabbit duodenum (Oryctolagus cuniculus, UniProt G1T803); test: Rabbit duodenal smooth muscle strip tissue bath assay; assay type: cell-based; conditions: negative logarithm of the dose giving 50% of the maximal response to motilin; isotonic contraction of rabbit duodenum segments
Experimental: The contractile response of segments of rabbit duodenum was determined isotonically in the tissue bath according to the procedure of Depoortere et at., J. Gastrointestinal Motility, 1, 150-159 (1989). The experimental protocol consisted of an equilibration period of 1 hour; a challenge with 10^-4 M acetylcholine followed by a wash-out period; a cumulative dose-response curve of a compound with, at the end, the addition of 10^-7 M motilin; and finally 10^-4 M acetylcholine. If the final response to 10^-4 M acetylcholine differed by more than 5% from the initial response, the results were discarded. The compounds were tested in the concentration range 10^-11 to 10^-4 M. The point corresponding to 50% of the maximal response to motilin (Emax) was determined by fitting the equation E=Emax (1+EC50 /[L]) through the data points. […] The dose giving 50% of the response is expressed using its negative logarithm (pEC50).

[3] = negative logarithm of the concentration displacing 50% of [125I-Tyr7, Nle13]motilin(porcine) from rabbit antral smooth muscle membranes, read-out: pIC50 (converted)

segments of rabbit duodenum, sequence (G1T803 1-400): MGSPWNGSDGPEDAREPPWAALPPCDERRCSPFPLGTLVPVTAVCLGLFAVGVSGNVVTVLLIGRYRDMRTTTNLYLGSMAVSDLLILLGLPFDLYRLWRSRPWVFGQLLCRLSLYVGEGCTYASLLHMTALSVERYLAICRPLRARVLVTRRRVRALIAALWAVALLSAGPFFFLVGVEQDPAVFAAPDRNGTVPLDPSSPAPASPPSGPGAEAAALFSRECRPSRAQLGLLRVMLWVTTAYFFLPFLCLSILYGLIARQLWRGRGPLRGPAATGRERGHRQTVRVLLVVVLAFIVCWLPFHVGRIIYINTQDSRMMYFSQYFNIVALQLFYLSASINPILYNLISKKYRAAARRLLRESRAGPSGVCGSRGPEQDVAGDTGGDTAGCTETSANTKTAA
T1 sequence (G1T803 1-400): as above

| SMILES | IC50 ([1]; pIC50, negative logarithm of the concentration displacing 50% of [125I-Tyr7, Nle13]motilin(porcine) from rabbit antral smooth muscle membranes) [nM] | pEC50 [2] | IC50 [1, 3] [nM] |
| --- | --- | --- | --- |
| CC[C@H](C)[C@H](NC(=O)[C@H](C)NC(=O)[C@@H](NC(=O)[C@H](Cc1ccccc1)NC)C(C)C)C(=O)N[C@@H](Cc1ccccc1)C(=O)N[C@H](C(=O)N[C@@H](Cc1ccc(O)cc1)C(=O)NCC(=O)N[C@@H](CCC(=O)O)C(=O)N[C@@H](CC(C)C)C(=O)N[C@@H](CCC(N)=O)C(=O)N[C@H](CCCNC(=N)N)C(=O)N[C@@H](CC(C)C)C(=O)N[C@H](CCC(N)=O)C(N)=O)[C@@H](C)O (H-[NMeF]VAIFTYGELQ[dR]L[dQ]-NH2) | 0.776 | 8.07 | – |
| CC[C@H](C)[C@H](NC(=O)[C@H](C)NC(=O)[C@@H](NC(=O)[C@H](Cc1ccccc1)[N+](C)(C)C)C(C)C)C(=O)N[C@@H](Cc1ccccc1)C(=O)N[C@H](C(=O)N[C@@H](Cc1ccc(O)cc1)C(=O)NCC(=O)N[C@@H](CCC(=O)O)C(=O)N[C@@H](CC(C)C)C(=O)N[C@@H](CCC(N)=O)C(=O)N[C@H](CCCNC(=N)N)C(=O)N[C@@H](CC(C)C)C(=O)N[C@H](CCC(N)=O)C(N)=O)[C@@H](C)O (X1-VAIFTYGELQ[dR]L[dQ]-NH2) | – | 7.20 | 1.41 |
| CC[C@H](C)[C@H](NC(=O)[C@@H]1CCCN1C(=O)[C@@H](NC(=O)[C@@H](N)Cc1ccccc1)C(C)C)C(=O)N[C@@H](Cc1ccccc1)C(=O)N[C@H](C(=O)N[C@@H](Cc1ccc(O)cc1)C(=O)NCC(=O)N[C@@H](CCC(=O)O)C(=O)N[C@@H](CC(C)C)C(=O)N[C@@H](CCC(N)=O)C(=O)N[C@H](CCCNC(=N)N)C(=O)N[C@@H](CC(C)C)C(=O)N[C@@H](CCC(N)=O)C(N)=O)[C@@H](C)O [[D-Arg^13, Leu^13]pMOT(1-14) amide] (H-FVPIFTYGELQ[dR]LQ-NH2) | – | 7.50 | 2.45 |
| CC[C@H](C)[C@H](NC(=O)[C@H](C)NC(=O)[C@@H](NC(=O)[C@H](N)CC1CCCCC1)C(C)C)C(=O)N[C@@H](Cc1ccccc1)C(=O)N[C@H](C(=O)N[C@@H](Cc1ccc(O)cc1)C(=O)NCC(=O)N[C@@H](CCC(=O)O)C(=O)N[C@@H](CC(C)C)C(=O)N[C@@H](C)C(=O)N[C@H](CCCNC(=N)N)C(=O)N[C@@H](CC(C)C)C(=O)N[C@H](CCCCN)C(N)=O)[C@@H](C)O (H-[dCha]VAIFTYGELA[dR]L[dK]-NH2) | – | 7.25 | 0.933 |
| CC[C@H](C)[C@H](NC(=O)[C@@H]1CCCN1C(=O)[C@@H](NC(=O)[C@@H](N)Cc1ccccc1)C(C)C)C(=O)N[C@@H](CC1CCCCC1)C(=O)N[C@H](C(=O)N[C@@H](Cc1ccc(O)cc1)C(=O)NCC(=O)N[C@@H](CCC(=O)O)C(=O)N[C@@H](CC(C)C)C(=O)N[C@@H](CCC(N)=O)C(=O)N[C@H](CCCNC(=N)N)C(=O)N[C@@H](CC(C)C)C(=O)N[C@@H](CCC(N)=O)C(N)=O)[C@@H](C)O [H-Phe-Val-Pro-Ile-Cha-Thr-Tyr-Gly-Glu-Leu-Gln-D-Arg-Leu-Gln-NH2] (H-FVPI[Cha]TYGELQ[dR]LQ-NH2) | – | 7.30 | 6.76 |
| CC[C@H](C)[C@H](NC(=O)[C@H](C)NC(=O)[C@@H](NC(=O)[C@H](Cc1ccccc1)[N+](C)(C)C)C(C)C)C(=O)N[C@@H](Cc1ccccc1)C(=O)N[C@H](C(=O)N[C@@H](Cc1ccc(O)cc1)C(=O)NCC(=O)N[C@@H](CCC(=O)O)C(=O)N[C@@H](CC(C)C)C(=O)N[C@@H](CCC(N)=O)C(=O)N[C@@H](CCCNC(=N)N)C(=O)N[C@@H](CC(C)C)C(=O)N[C@@H](CCCCN)C(N)=O)[C@@H](C)O (X1-VAIFTYGELQRLK-NH2) | – | 7.58 | 1.51 |
| CC[C@H](C)[C@H](NC(=O)[C@@H]1CCCN1C(=O)[C@@H](NC(=O)[C@@H](N)Cc1ccccc1)C(C)C)C(=O)N[C@@H](Cc1ccccc1)C(=O)N[C@H](C(=O)N[C@@H](Cc1ccc(O)cc1)C(=O)NCC(=O)N[C@@H](CCC(=O)O)C(=O)N[C@@H](CC(C)C)C(=O)N[C@@H](CCC(N)=O)C(=O)N[C@H](CC(N)=O)C(=O)N[C@@H](CC(C)C)C(=O)N[C@@H](CCC(N)=O)C(=O)O)[C@@H](C)O [[D-Asn^12, Leu^13]pMOT(1-14)] (H-FVPIFTYGELQ[dN]LQ-OH) | – | 6.82 | 7.59 |
| CC[C@H](C)[C@H](NC(=O)[C@@H]1CCCN1C(=O)[C@@H](NC(=O)[C@@H](N)Cc1ccccc1)C(C)C)C(=O)N[C@@H](Cc1ccccc1)C(=O)N[C@H](C(=O)N[C@@H](Cc1ccccc1)C(=O)NCC(=O)N[C@@H](CCC(=O)O)C(=O)N[C@@H](CC(C)C)C(=O)N[C@@H](CCC(N)=O)C(=O)N[C@H](CCCNC(=N)N)C(=O)N[C@@H](CC(C)C)C(=O)N[C@@H](CCC(N)=O)C(=O)O)[C@@H](C)O [[Phe^7, D-Arg^12, Leu^13]pMOT(1-14)] (H-FVPIFTFGELQ[dR]LQ-OH) | – | 6.92 | 8.51 |
| CC[C@H](C)[C@H](NC(=O)[C@@H]1CCCN1C(=O)[C@@H](NC(=O)[C@@H](N)CC1CCCCC1)C(C)C)C(=O)N[C@@H](Cc1ccccc1)C(=O)N[C@H](C(=O)N[C@@H](Cc1ccc(O)cc1)C(=O)NCC(=O)N[C@@H](CCC(=O)O)C(=O)N[C@@H](CC(C)C)C(=O)N[C@@H](CCC(N)=O)C(=O)N[C@H](CCCNC(=N)N)C(=O)N[C@@H](CC(C)C)C(=O)N[C@@H](CCC(N)=O)C(=O)O)[C@@H](C)O [[Cha^1, D-Arg^12, Leu^13]pMOT(1-14)] (H-[Cha]VPIFTYGELQ[dR]LQ-OH) | – | 7.60 | 1.78 |
| CC[C@H](C)[C@H](NC(=O)[C@@H]1CCCN1C(=O)[C@@H](NC(=O)[C@H](Cc1ccccc1)[N+](C)(C)C)C(C)C)C(=O)N[C@@H](Cc1ccccc1)C(=O)N[C@H](C(=O)N[C@@H](Cc1ccc(O)cc1)C(=O)NCC(=O)N[C@@H](CCC(=O)O)C(=O)N[C@@H](CC(C)C)C(=O)N[C@@H](C)C(=O)N[C@H](CCCNC(=N)N)C(=O)N[C@@H](CC(C)C)C(=O)N[C@H](CCC(N)=O)C(N)=O)[C@@H](C)O (X1-VPIFTYGELA[dR]L[dQ]-NH2) | – | 7.25 | 2.45 |
| CC[C@H](C)[C@H](NC(=O)[C@@H]1CCCN1C(=O)[C@@H](NC(=O)[C@@H](N)Cc1ccccc1)C(C)C)C(=O)N[C@@H](Cc1ccccc1)C(=O)N[C@H](C(=O)N[C@@H](Cc1ccc(O)cc1)C(=O)N[C@H](C)C(=O)N[C@@H](CCC(=O)O)C(=O)N[C@@H](CC(C)C)C(=O)N[C@@H](CCC(N)=O)C(=O)N[C@H](CCCNC(=N)N)C(=O)N[C@@H](CC(C)C)C(=O)N[C@@H](CCC(N)=O)C(=O)O)[C@@H](C)O [[D-Ala^8, D-Arg^12, Leu^13]pMOT(1-14), H-Phe-Val-Pro-Ile-Phe-Thr-Tyr-D-Ala-Glu-Leu-Gln-D-Arg-Leu-Gln-OH] (H-FVPIFTY[dA]ELQ[dR]LQ-OH) | – | 7.09 | 6.03 |
| CC[C@H](C)[C@H](NC(=O)[C@H](C)NC(=O)[C@@H](NC(=O)[C@H](Cc1ccccc1)N(C)C)C(C)C)C(=O)N[C@@H](Cc1ccccc1)C(=O)N[C@H](C(=O)N[C@@H](Cc1ccc(O)cc1)C(=O)NCC(=O)N[C@@H](CCC(=O)O)C(=O)N[C@@H](CC(C)C)C(=O)N[C@@H](C)C(=O)N[C@H](CCCNC(=N)N)C(=O)N[C@@H](CC(C)C)C(=O)N[C@H](CCCCN)C(N)=O)[C@@H](C)O (NMe2Phe-VAIFTYGELA[dR]L[dK]-NH2) | – | 7.73 | 4.07 |
| CC[C@H](C)[C@H](NC(=O)[C@@H]1CCCN1C(=O)[C@@H](NC(=O)[C@H](Cc1ccccc1)NC)C(C)C)C(=O)N[C@@H](Cc1ccccc1)C(=O)N[C@H](C(=O)N[C@@H](Cc1ccc(O)cc1)C(=O)NCC(=O)N[C@@H](CCC(=O)O)C(=O)N[C@@H](CC(C)C)C(=O)N[C@@H](CCC(N)=O)C(=O)N[C@H](CCCNC(=N)N)C(=O)N[C@@H](CC(C)C)C(=O)N[C@@H](CCC(N)=O)C(N)=O)[C@@H](C)O (H-[NMeF]VPIFTYGELQ[dR]LQ-NH2) | – | 7.95 | 1.02 |
